Data on five molecules can be found in PMC12985355 (Journal of the American Chemical Society, 2025).

Assay [1] concerns the target CntL (Staphylococcus aureus, UniProt A0A0H3JXA8). As to the kind of experiment: thermal shift assay. Type of assay: binding.
The target in assay [2] is T1, NAT (SAM:nocardicin 3-ACP transferase) (Nocardia uniformis, UniProt Q9RAH6).
T1 sequence (Q9RAH6 1-301): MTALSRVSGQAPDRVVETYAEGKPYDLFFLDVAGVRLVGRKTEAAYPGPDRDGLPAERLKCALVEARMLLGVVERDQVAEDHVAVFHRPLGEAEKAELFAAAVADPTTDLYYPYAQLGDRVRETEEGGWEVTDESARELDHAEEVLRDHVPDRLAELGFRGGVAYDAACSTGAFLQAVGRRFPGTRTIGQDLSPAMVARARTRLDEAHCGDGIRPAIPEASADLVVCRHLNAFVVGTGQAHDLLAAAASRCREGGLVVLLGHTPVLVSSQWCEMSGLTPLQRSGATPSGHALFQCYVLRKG
As to the kind of experiment: thermal shift assay. Format: binding. The conditions noted are these: further addition to enzyme with nocardicin E (2).

The target of assay [3] is T1, NAT (SAM:nocardicin 3-ACP transferase). Nature of the assay: 3-ACP transfer, LC-MS. Format: biochemical. The following applies: SAM as co-substrate; very low yield.
Assay [4] shares this target. Nature of the assay: thermal shift assay. The conditions noted are these: binds to a similar extent as SAM; no turnover with nocardicin E. Format: binding.

Like-named read-outs stand apart in the source and are kept apart here.

Chain of CntL (A0A0H3JXA8 whole entry): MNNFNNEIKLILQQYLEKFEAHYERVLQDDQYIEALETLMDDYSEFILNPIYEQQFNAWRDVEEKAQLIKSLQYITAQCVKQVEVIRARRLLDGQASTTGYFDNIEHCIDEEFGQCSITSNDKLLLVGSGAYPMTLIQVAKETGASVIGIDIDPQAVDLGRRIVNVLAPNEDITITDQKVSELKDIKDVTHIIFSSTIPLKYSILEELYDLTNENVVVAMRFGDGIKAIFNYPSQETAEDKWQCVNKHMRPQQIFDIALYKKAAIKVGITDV

As to `C[S+](CC[C@H](N)C(=O)O)C[C@H]1O[C@@H](n2cnc3c(N)ncnc32)[C@H](O)[C@@H]1O` (stereo partly drawn) [SAM], in assay [1], the melting point entry is recorded as “da-SAM can bind to the enzyme to the same extent as SAM”. In addition, the “increase in melting temperature” value in assay [2] came out at 7 °C.
Consider `CC1=C(C(=O)O)N2C(=O)[C@@H](NC(=O)[C@H](N)c3ccc(O)cc3)[C@H]2SC1` [cefadroxil], for which, in assay [3], the “3-ACP transfer, LC-MS” value is on record as “NAT accepted both of them, to produce the 3-ACP-β-lactam products”.
Regarding `C[S+](CCCC(=O)[O-])C[C@H]1O[C@@H](n2cnc3c(N)ncnc32)[C@H](O)[C@@H]1O` (stereo partly drawn) [deamino-SAM], the melting temperature result in assay [4] is reported as “deamino-SAM can bind to the enzyme to a similar extent as SAM”.
Turning to `N[C@H](Cc1c[nH]cn1)C(=O)O` [D-histidine], in assay [1] (with SAM present, no shift with da-SAM), the melting point entry is “the melting point increased when CntL was combined with SAM and D-his”.
With `CC1(C)S[C@@H]2[C@H](NC(=O)[C@H](N)c3ccc(O)cc3)C(=O)N2[C@H]1C(=O)O` [amoxicillin], in assay [3], the “3-ACP transfer, LC-MS” value is listed as “NAT accepted both of them, to produce the 3-ACP-β-lactam products”.
